Results published in publication PMC9146695, “Globularia alypum L. and Related Species: LC-MS Profiles and Antidiabetic, Antioxidant, Anti-Inflammatory, Antibacterial and Anticancer Potential” (Pharmaceuticals, 2022).
In brackets after ≈: the same amount, converted by molar mass. Where two headings read alike, the source gives them in different places. Each block holds one compound with its values, some of them ahead of it.

Assays:
[1] = biological target: α-glucosidase; conditions: cited from earlier work
[2] = tested on: HT-29 human colon adenocarcinoma cells; parameters: method as in doi:10.1007/s00044-015-1500-z; conditions: cited from earlier work
[3] = cited from earlier work
[4] = tested on: S. aureus; conditions: cited from earlier work
[5] = tested on: five MRSA strains; parameters: method as in PMID 18404351; conditions: cited from earlier work
[6] = tested on: Staphylococcus aureus ATCC 6538; experiment: Serial broth microdilution with agar sub-cultivation; type: cell-based; conditions: ATCC6538, aerial parts extracts, TTC detection
[7] = tested on: COX-1; parameters: method as in PMID 11849848; conditions: cited from earlier work
[8] = tested on: S. aureus strains (MSSA and MRSA); experiment: Serial broth microdilution, S. aureus strains taken together; type: cell-based; conditions: Staphylococcus aureus; reference standard; read-out: MIC, anti-staphylococcal activity
[9] = tested on: COX-2; parameters: method as in PMID 11849848; conditions: cited from earlier work
[10] = tested on: MDA-MB-231; parameters: method as in PMID 34719192; conditions: cited from earlier work
[11] = tested on: Pseudomonas aeruginosa ATCC 27853; experiment: Serial broth microdilution with agar sub-cultivation; type: cell-based; conditions: ATCC27853, aerial parts extracts, TTC detection, n.d. = growth inhibition not detected (0.36–22.73 mg/mL)
[12] = tested on: E. faecalis; conditions: cited from earlier work
[13] = tested on: Staphylococcus aureus ATCC 29213; experiment: Serial broth microdilution with agar sub-cultivation; type: cell-based
[14] = tested on: E. coli; parameters: method as in doi:10.1016/j.sajb.2010.04.010; conditions: range given for both compounds; cited from earlier work
[15] = tested on: Escherichia coli ATCC 10536; experiment: Serial broth microdilution with agar sub-cultivation; type: cell-based; conditions: ATCC10536, aerial parts extracts, TTC detection, n.d. = growth inhibition not detected (0.18–11.36 mg/mL)
[16] = tested on: P. aeruginosa; conditions: cited from earlier work
[17] = tested on: CAMA-1 breast cancer cells; parameters: method as in doi:10.4314/tjpr.v17i9.4; conditions: cited from earlier work
[18] = DPPH radical scavenging activity assay; conditions: methanolic aerial parts extracts (Soxhlet); 30 min
Procedure: Antiradical activity was assessed using the free radical 2,2-diphenyl-1-picrylhydrazyl (DPPH) according to the previously described procedure. Methanolic stock solution of DPPH (0.1 mM) was dissolved to obtain absorbance of 0.70 ± 0.02. In 2 mL of prepared solution, 10 µL sample was added. After 30 min incubation, absorbance was measured at 517 nm with methanol used as blank. Results are expressed as concentrations observed to reduce the DPPH radical absorbance by 50% (IC50).

[19] = tested on: B. subtilis, B. cereus and S. aureus; parameters: method as in earlier work; conditions: cited from earlier work
[20] = tested on: HL60 cells; conditions: cited from earlier work
[21] = tested on: KB cells; conditions: cited from earlier work
[22] = tested on: YMB-1 breast cancer cells; conditions: cited from earlier work
[23] = tested on: B. subtilis; parameters: method as in PMID 31737673; conditions: same ATCC strain as in the present study; cited from earlier work
[24] = tested on: Pseudomonas aeruginosa ATCC 27853; experiment: Well diffusion method; type: cell-based; conditions: aerial parts extracts c = 50 mg/mL; antibiotics c = 0.2 mg/mL; n.d. = growth inhibition not detected
Procedure: (§1) Antibacterial activity was evaluated using the following strains: Bacillus cereus American Type Culture Collection (ATCC, Manassas, VA, USA) 11778, B. subtilis ATCC 6633, Enterococcus faecalis ATCC 29212, Staphylococcus aureus ATCC 6538 and S. aureus ATCC 29213 among Gram-positive and Escherichia coli ATCC 10536, Klebsiella pneumoniae MFBF 10402 and Pseudomonas aeruginosa ATCC 27853 among Gram-negative bacterial species. Additionally, eight clinical isolates of S. aureus, including methicillin-resistant S. aureus (MRSA MFB F101, MRSA MFBF 124, MRSA MFBF 154, MRSA MFBF 164, and MRSA MFBF 177) and methicillin susceptible S. aureus (S. aureus MFBF 505, S. aureus MFBF 10661 and S. aureus MFBF 10666) were used. Bacterial strains were sourced from the Collection of Microorganisms, Department of Microbiology, Faculty of Pharmacy and Biochemistry, University of Zagreb. Inoculums were prepared from overnight cultures that were cultured on tryptic soy agar (TSA) at 37 °C, suspended in sterile physiological saline, with the optic density adjusted to 0.5 McFarland (1.5 × 10^8 colony-forming units (CFUs)/mL) using a densitometer (Densimat, BioMérieux, Marcy-l’Étoile, France). Right before cultivation in nutrient medium, 1 mL of each prepared suspension was dissolved with 9 mL physiological saline. Prior to cell treatment, sample stock solutions in distilled water (c = 50 mg/mL) were filtered through Chromafil cellulose acetate filters of pore size 0.22 μm (Macherey-Nagel, Düren, Germany).
(§2) Well diffusion method was carried out according to the European Pharmacopoeia. Inoculums (100 μL) were transferred to individual petri dishes with 4 mm thick Müller–Hinton agar and equally distributed across agar surface with a glass L-stick. Wells were prepared using sterile stainless-steel cylinders (d = 6 mm) and filled with 50 μL of methanolic aerial parts extract solution (c = 50 mg/mL) in distilled water. Plates were incubated at 37 °C for 18 h in the dark. Diameters of the zones of inhibition of bacterial growth (mm) were read from the diameters of transparent zones around the wells. Gentamicin and norfloxacin (c = 0.2 mg/mL) were used as positive controls.

[25] = tested on: Bacillus subtilis ATCC 6633; experiment: Well diffusion method; type: cell-based; conditions: aerial parts extracts c = 50 mg/mL; antibiotics c = 0.2 mg/mL; n.d. = growth inhibition not detected
Procedure: as §1, §2

[26] = tested on: Bacillus cereus ATCC 11778; experiment: Well diffusion method; type: cell-based; conditions: aerial parts extracts c = 50 mg/mL; antibiotics c = 0.2 mg/mL; n.d. = growth inhibition not detected
Procedure: as §1, §2

[27] = tested on: Staphylococcus aureus ATCC 6538; experiment: Well diffusion method; type: cell-based; conditions: aerial parts extracts c = 50 mg/mL; antibiotics c = 0.2 mg/mL
Procedure: as §1, §2

[28] = tested on: Enterococcus faecalis ATCC 29212; experiment: Well diffusion method; type: cell-based; conditions: aerial parts extracts c = 50 mg/mL; antibiotics c = 0.2 mg/mL; n.d. = growth inhibition not detected
Procedure: as §1, §2

[29] = tested on: Escherichia coli ATCC 10536; experiment: Well diffusion method; type: cell-based; conditions: aerial parts extracts c = 50 mg/mL; antibiotics c = 0.2 mg/mL; n.d. = growth inhibition not detected
Procedure: as §1, §2

[30] = tested on: Klebsiella pneumoniae MFBF 10402; experiment: Well diffusion method; type: cell-based; conditions: aerial parts extracts c = 50 mg/mL; antibiotics c = 0.2 mg/mL; n.d. = growth inhibition not detected
Procedure: as §1, §2

[31] = isolated compounds of Clerodendrum bungei
[32] = constituents of G. alypum and standards, read-out: DPPH radical scavenging IC50
[33] = compounds from Origanum majorana leaves
[34] = same ATCC strain as in the present study

SMILES: COc1cc(/C=C/C(=O)O[C@H]2[C@H](O[C@@H]3O[C@@H](C)[C@H](O)[C@@H](O)[C@H]3O)[C@@H](O)[C@H](OCCc3ccc(O)c(O)c3)O[C@@H]2CO)ccc1O [leucosceptoside A, Leucosceptoside A]
IC50 [1, 31]: 700 µM

SMILES: CC(=O)OCC1=C[C@H](O)[C@@H]2C(C(=O)O)=CO[C@@H](O[C@@H]3O[C@H](CO)[C@@H](O)[C@H](O)[C@H]3O)[C@H]12 [asperulosidic acid, Asperulosidic acid]
IC50 HT-29 cell viability [2]: 6.1 µg/mL (≈ 14.1 µM)

SMILES: OCCc1ccc(O)c(O)c1 [hydroxytyrosyl moiety]
IC50 [1]: 150 µM

SMILES: O=c1c(O)c(-c2ccc(O)c(O)c2)oc2cc(O)cc(O)c12 [quercetin]
IC50 [3, 32]: 7.8 µM

SMILES: C[C@@H]1O[C@@H](O[C@@H]2[C@@H](O)[C@H](OCCc3ccc(O)c(O)c3)O[C@H](CO)[C@H]2OC(=O)/C=C/c2ccc(O)c(O)c2)[C@H](O)[C@H](O)[C@H]1O [Verbascoside, Verbascoside (Acteoside)]
MIC, anti-staphylococcal activity [4]: 60 µg/mL (≈ 96.1 µM)
MIC against five MRSA strains [5]: 64 to 256 µg/mL
MIC [6]: 227 µg/mL (≈ 364 µM)
IC50 [7]: > 1 mM
MIC [8]: 227 µg/mL (≈ 364 µM)
IC50 [9]: 690 µM
IC50 [10]: 159 to 258 nM
IC50 ([3]; read-out: DPPH radical scavenging capacity IC50): 58.1 µM
MIC [11]: 227 µg/mL (≈ 364 µM)
MIC against E. faecalis ([12]; range given for both compounds): 100 to 150 µg/mL
MIC ([13]; ATCC29213, aerial parts extracts, TTC detection): 227 µg/mL (≈ 364 µM)
MBC ([13]; ATCC29213, agar sub-cultivation): 227 µg/mL (≈ 364 µM)
IC50 [1, 31]: 500 µM
MIC against E. coli [14]: 100 to 250 µg/mL
MIC [15]: 227 µg/mL (≈ 364 µM)
MIC against P. aeruginosa ([16]; given for both compounds): 250 µg/mL (≈ 400 µM)

SMILES: O=c1cc(-c2ccc(O)c(O)c2)oc2cc(O)c(O)c(O)c12 [6-hydroxyluteolin]
IC50 [1, 33]: 10 µM

SMILES: O=c1cc(-c2ccc(O)cc2)oc2c([C@@H]3O[C@H](CO)[C@@H](O)[C@H](O)[C@H]3O)c(O)c([C@@H]3O[C@H](CO)[C@@H](O)[C@H](O)[C@H]3O)c(O)c12 [vicenin-2, Vicenin-2 (Apigenin-6,8-di-C-glucoside)]
IC50 [1]: 271 µM

SMILES: O=C(OCC1=CC(O)C2(O)C=COC(O[C@@H]3O[C@H](CO)[C@@H](O)[C@H](O)[C@H]3O)C12)c1ccccc1 (some centres unmarked) [Globularifolin, Globularifolin (10-O-Benzoylmonomelittoside)]
IC50 [17]: 10 µM

SMILES: O=C(/C=C/c1ccc(O)c(O)c1)OC[C@H]1O[C@@H](OCCc2ccc(O)c(O)c2)[C@H](O)[C@@H](O)[C@@H]1O [calceolarioside B, Calceolarioside B (Desrhamnosyl isoverbascoside)]
IC50 ([3]; read-out: DPPH IC50): 26.2 µM

DPPH radical scavenging activity IC50 [18]: 0.64 µg/mL
SMILES: O=C(O)c1cc(O)c(O)c(O)c1 [Gallic Acid, gallic acid]

SMILES: O=c1cc(-c2ccc(O)c(O)c2)oc2cc(O[C@@H]3O[C@H](CO)[C@@H](O)[C@H](O)[C@H]3O)cc(O)c12 [luteolin 7-O-glucoside]
MIC against B. subtilis, B. cereus and S. aureus [19]: 50 to 90 µg/mL

SMILES: CC(=O)OCC1=C[C@@H]2OC(=O)C3=CO[C@@H](O[C@@H]4O[C@H](CO)[C@@H](O)[C@H](O)[C@H]4O)[C@H]1[C@@H]32 [asperuloside, Asperuloside]
IC50 HL60 cells [20]: 11.0 µg/mL (≈ 26.5 µM)
IC50 KB cells [21]: 104.2 µg/mL (≈ 251 µM)
IC50 YMB-1 breast cancer cells [22]: 0.7 µg/mL (≈ 1.69 µM)

SMILES: C[C@@H]1O[C@@H](O[C@@H]2[C@@H](O)[C@H](OCCc3ccc(O)c(O)c3)O[C@H](COC(=O)/C=C/c3ccc(O)c(O)c3)[C@H]2O)[C@H](O)[C@H](O)[C@H]1O [isoverbascoside, Isoverbascoside (Isoacteoside)]
MIC, anti-staphylococcal activity [4]: 130 µg/mL (≈ 208 µM)
MIC against E. faecalis ([12]; range given for both compounds): 100 to 150 µg/mL
IC50 [1, 31]: 100 µM
MIC against E. coli [14]: 100 to 250 µg/mL
MIC against P. aeruginosa ([16]; given for both compounds): 250 µg/mL (≈ 400 µM)

SMILES: O=c1cc(-c2ccc(O)c(O)c2)oc2cc(O[C@@H]3O[C@H](CO)[C@@H](O)[C@H](O)[C@H]3O)c(O)c(O)c12 [6-hydroxyluteolin 7-O-glucoside, 6-Hydroxyluteolin 7-O-glucoside]
IC50 [1, 33]: 300 µM

DPPH radical scavenging activity IC50 [18]: 2.71 µg/mL
SMILES: Cc1c(C)c2c(c(C)c1O)CCC(C)(C(=O)O)O2 (centres unmarked) [Trolox]

SMILES: Cc1cc(C(C)(C)C)c(O)c(C(C)(C)C)c1 [butylated hydroxytoluene]
IC50 [3, 32]: 30 µM

SMILES: O=c1cc(-c2ccc(O)cc2)oc2cc(O)cc(O)c12 [apigenin, Apigenin]
inhibitory activity against S. aureus [4]: no inhibitory activity was observed
MIC against B. subtilis [23]: 8 µg/mL (≈ 29.6 µM)
MIC against E. faecalis [12, 34]: 8 µg/mL (≈ 29.6 µM)
MIC against B. subtilis, B. cereus and S. aureus [19]: 30 to 80 µg/mL
IC50 [1, 33]: > 500 µM
MIC against P. aeruginosa [16, 34]: 64 to 400 µg/mL

SMILES: O=c1cc(-c2ccc(O)cc2)oc2cc(O)c(O)c(O)c12 [6-hydroxyapigenin, 6-hydroxyapigenin (scutellarein)]
IC50 [1, 33]: 12 µM

SMILES: O=C(/C=C/c1ccc(O)c(O)c1)O[C@H]1[C@H](O)[C@@H](O)[C@H](OCCc2ccc(O)c(O)c2)O[C@@H]1CO [calceolarioside A, Calceolarioside A (Desrhamnosyl verbascoside)]
IC50 ([3]; read-out: DPPH IC50): 22.9 µM

SMILES: CCn1cc(C(=O)O)c(=O)c2cc(F)c(N3CCNCC3)cc21 [Norfloxacin, norfloxacin]
growth inhibition zone [24]: 30.7 ± 2.8 mm
growth inhibition zone [25]: 41.0 ± 0.0 mm
growth inhibition zone [26]: 26.6 ± 0.9 mm
growth inhibition zone [27]: 33.8 ± 0.8 mm
growth inhibition zone [28]: 23.8 ± 0.8 mm
growth inhibition zone [29]: 44.7 ± 1.0 mm
growth inhibition zone [30]: 7.3 ± 0.5 mm

SMILES: O=c1cc(-c2ccc(O)c(O)c2)oc2cc(O)cc(O)c12 [luteolin]
IC50 [1, 33]: > 500 µM
